From patent publication US20240376084A1, “INHIBITORS OF ALPHA-HEMOLYSIN OF STAPHYLOCOCCUS AUREUS” (Helmholtz-Zentrum Fur Infektionsforschung GmbH, priority 2021, published 2024)

Legend:
[1] = molecular target: S. aureus Alpha hemolysin (Staphylococcus aureus, UniProt P09616); assay: cell-based
[2] = molecular target: hemolysin alpha from Staphylococcus aureus (Staphylococcus aureus, UniProt P09616); assay: cell-based
Sequence of hemolysin alpha from Staphylococcus aureus (P09616 27-319 limits assumed): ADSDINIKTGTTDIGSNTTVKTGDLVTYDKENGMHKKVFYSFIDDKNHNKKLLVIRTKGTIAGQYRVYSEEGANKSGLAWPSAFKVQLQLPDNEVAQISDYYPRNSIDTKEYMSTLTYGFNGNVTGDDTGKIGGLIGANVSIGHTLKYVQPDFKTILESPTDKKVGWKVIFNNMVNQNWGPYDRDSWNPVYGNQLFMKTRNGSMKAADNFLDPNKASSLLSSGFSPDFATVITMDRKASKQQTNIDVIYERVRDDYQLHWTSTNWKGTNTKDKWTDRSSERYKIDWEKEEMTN

Sequence of S. aureus Alpha hemolysin (P09616 27-319 limits assumed): as above

`O=c1[nH]c2cc(Cl)c(S(=O)(=O)Nc3ccc(C(F)(F)F)c(Cl)c3)cc2[nH]c1=O` [Compound 143, 7-chloro-N-(3-chloro-4-(trifluoromethyl)phenyl)-2,3-dioxo-1,2,3,4-tetrahydroquinoxaline-6-sulfonamide] gave an EC50 ([1]; A549-LDH Assay activity) of 1000 to 6000 nM and an IC50 [2] of 100 to 1000 nM.
Work on `Cc1cc2[nH]c(=O)c(=O)[nH]c2cc1S(=O)(=O)Nc1ccc(-c2cc(F)c3c(c2)NCCO3)c(Cl)c1` [Compound 357, N-[3-chloro-4-(8-fluoro-3,4-dihydro-2H-1,4-benzoxazin-6-yl)phenyl]-7-methyl-2,3-dioxo-1,4-dihydroquinoxaline-6-sulfonamide] yielded an EC50 ([1]; A549-LDH Assay activity) of 100 to 1000 nM and an EC50 [2] of under 30 nM.
Work on `Cc1cc2[nH]c(=O)c(=O)[nH]c2cc1S(=O)(=O)Nc1ccc(-c2ccc(F)cc2)c(C#N)c1` [Compound 377, N-[3-cyano-4-(4-fluorophenyl)phenyl]-7-methyl-2,3-dioxo-1,4-dihydroquinoxaline-6-sulfonamide] yielded an EC50 ([1]; A549-LDH Assay activity) of 100 to 1000 nM and an EC50 [2] of 100 to 1000 nM.
In the case of `Cc1cc2[nH]c(=O)c(=O)[nH]c2cc1S(=O)(=O)Nc1ccc(-c2cccc(N3CCC3)c2)c(Cl)c1` [Compound 206, N-(3′-(azetidin-1-yl)-2-chloro-[1,1′-biphenyl]-4-yl)-7-methyl-2,3-dioxo-1,2,3,4-tetrahydroquinoxaline-6-sulfonamide], the EC50 ([1]; A549-LDH Assay activity) is reported as 30 to 100 nM and the EC50 [2] is reported as under 30 nM.
Compound `Cc1cc2[nH]c(=O)c(=O)[nH]c2cc1S(=O)(=O)Nc1cc(C)c(-c2cc[nH]c2)c(C)c1` [Compound 135, N-(3,5-dimethyl-4-(1H-pyrrol-3-yl)phenyl)-7-methyl-2,3-dioxo-1,2,3,4-tetrahydroquinoxaline-6-sulfonamide] has an EC50 ([1]; A549-LDH Assay activity) of 100 to 1000 nM and an IC50 [2] of 100 to 1000 nM.
Work on `CCc1cc2[nH]c(=O)c(=O)[nH]c2cc1S(=O)(=O)Nc1ccc(OC(F)(F)F)cc1` [Compound 20, 7-ethyl-2,3-dioxo-N-(4-(trifluoromethoxy)phenyl)-1,2,3,4-tetrahydroquinoxaline-6-sulfonamide] yielded an EC50 ([1]; A549-LDH Assay activity) of 30 to 100 nM and an IC50 [2] of under 30 nM.
`Cc1cc2ccc(-c3ccc(NS(=O)(=O)c4cc5[nH]c(=O)c(=O)[nH]c5cc4C)cc3Cl)cc2[nH]1` [Compound 349, N-[3-chloro-4-(2-methyl-1H-indol-6-yl)phenyl]-7-methyl-2,3-dioxo-1,4-dihydroquinoxaline-6-sulfonamide] showed an EC50 ([1]; A549-LDH Assay activity) of under 30 nM and an EC50 [2] of under 30 nM.
`Cc1cc2[nH]c(=O)c(=O)[nH]c2cc1S(=O)(=O)Nc1ccc(-c2sccc2C)c(Cl)c1` [Compound 62, N-(3-chloro-4-(3-methylthiophen-2-yl)phenyl)-7-methyl-2,3-dioxo-1,2,3,4-tetrahydroquinoxaline-6-sulfonamide] gave an EC50 ([1]; A549-LDH Assay activity) of 100 to 1000 nM and an IC50 [2] of 30 to 100 nM.
Work on `CCOc1ccc(-c2ccc(NS(=O)(=O)c3cc4[nH]c(=O)c(=O)[nH]c4cc3C)cc2Cl)cc1` [Compound 319, N-[3-chloro-4-(4-ethoxyphenyl)phenyl]-7-methyl-2,3-dioxo-1,4-dihydroquinoxaline-6-sulfonamide] yielded an EC50 ([1]; A549-LDH Assay activity) of 100 to 1000 nM and an EC50 [2] of 30 to 100 nM.
Compound `Cc1cc2[nH]c(=O)c(=O)[nH]c2cc1S(=O)(=O)Nc1ccc(-c2cccc(O)c2)c(Cl)c1` [Compound 386, N-[3-chloro-4-(3-hydroxyphenyl)phenyl]-7-methyl-2,3-dioxo-1,4-dihydroquinoxaline-6-sulfonamide] has an EC50 ([1]; A549-LDH Assay activity) of under 30 nM and an EC50 [2] of under 30 nM.
Compound `Cc1cc2[nH]c(=O)c(=O)[nH]c2cc1S(=O)(=O)Nc1ccc(-c2ccn3ccnc3c2)c(Cl)c1` [Compound 336, N-(3-chloro-4-imidazo[1,2-a]pyridin-7-yl-phenyl)-7-methyl-2,3-dioxo-1,4-dihydroquinoxaline-6-sulfonamide] has an EC50 ([1]; A549-LDH Assay activity) of 100 to 1000 nM and an EC50 [2] of 30 to 100 nM.
For `O=c1[nH]c2cc(F)c(S(=O)(=O)Nc3ccc(-c4ccsc4)c(Cl)c3)cc2[nH]c1=O` [Compound 82, N-(3-chloro-4-(thiophen-3-yl)phenyl)-7-fluoro-2,3-dioxo-1,2,3,4-tetrahydroquinoxaline-6-sulfonamide], the EC50 ([1]; A549-LDH Assay activity) was 1000 to 6000 nM and the IC50 [2] was 100 to 1000 nM.
For `Cc1ccc(-c2ccc(NS(=O)(=O)c3cc4[nH]c(=O)c(=O)[nH]c4cc3C)cc2Cl)s1` [Compound 52, N-(3-chloro-4-(5-methylthiophen-2-yl)phenyl)-7-methyl-2,3-dioxo-1,2,3,4-tetrahydroquinoxaline-6-sulfonamide], the EC50 ([1]; A549-LDH Assay activity) was 100 to 1000 nM and the IC50 [2] was 30 to 100 nM.
Compound `Cc1cc2[nH]c(=O)c(=O)[nH]c2cc1S(=O)(=O)Nc1ccc(N2CCCC2)cc1` [Compound 137, 7-methyl-2,3-dioxo-N-(4-(pyrrolidin-1-yl)phenyl)-1,2,3,4-tetrahydroquinoxaline-6-sulfonamide] has an EC50 ([1]; A549-LDH Assay activity) of 30 to 100 nM and an IC50 [2] of 100 to 1000 nM.
For `O=c1[nH]c2cc(Cl)c(S(=O)(=O)Nc3ccc(-c4ccoc4)c(Cl)c3)cc2[nH]c1=O` [Compound 44, 7-chloro-N-(3-chloro-4-(furan-3-yl)phenyl)-2,3-dioxo-1,2,3,4-tetrahydroquinoxaline-6-sulfonamide], the EC50 ([1]; A549-LDH Assay activity) was 100 to 1000 nM and the IC50 [2] was 30 to 100 nM.
Work on `Cc1cc2[nH]c(=O)c(=O)[nH]c2cc1S(=O)(=O)Nc1ccc(-c2ccc3c(c2)NCC3)c(Cl)c1` [Compound 13, N-(3-chloro-4-(indolin-6-yl)phenyl)-7-methyl-2,3-dioxo-1,2,3,4-tetrahydroquinoxaline-6-sulfonamide] yielded an EC50 ([1]; A549-LDH Assay activity) of 100 to 1000 nM and an IC50 [2] of under 30 nM.
`Cc1cc2[nH]c(=O)c(=O)[nH]c2cc1S(=O)(=O)NC12CC(c3ccccc3)(C1)C2` [Compound 230, 7-methyl-2,3-dioxo-N-(3-phenylbicyclo[1.1.1]pentan-1-yl)-1,2,3,4-tetrahydroquinoxaline-6-sulfonamide] was tested, and the EC50 ([1]; A549-LDH Assay activity) was 100 to 1000 nM and the EC50 [2] was 100 to 1000 nM.
`Cc1cc2[nH]c(=O)c(=O)[nH]c2cc1S(=O)(=O)Nc1ccc(-c2ccccc2N(C)C)c(Cl)c1` [Compound 136, N-(2-chloro-2′-(dimethylamino)-[1,1′-biphenyl]-4-yl)-7-methyl-2,3-dioxo-1,2,3,4-tetrahydroquinoxaline-6-sulfonamide] showed an EC50 ([1]; A549-LDH Assay activity) of 100 to 1000 nM and an IC50 [2] of 100 to 1000 nM.
In the case of `Cc1cc2[nH]c(=O)c(=O)[nH]c2cc1S(=O)(=O)Nc1ccc(-c2ccc(F)cc2)c(N2CCOCC2)c1` [Compound 250, N-[4-(4-fluorophenyl)-3-morpholino-phenyl]-7-methyl-2,3-dioxo-1,4-dihydroquinoxaline-6-sulfonamide], the EC50 ([1]; A549-LDH Assay activity) is reported as 1000 to 6000 nM and the EC50 [2] is reported as 100 to 1000 nM.
For `Cc1cc2[nH]c(=O)c(=O)[nH]c2cc1S(=O)(=O)Nc1ccc(-c2ccc(C(F)(F)F)cc2)c(Cl)c1` [Compound 317, N-[3-chloro-4-[4-(trifluoromethyl)phenyl]phenyl]-7-methyl-2,3-dioxo-1,4-dihydroquinoxaline-6-sulfonamide], the EC50 ([1]; A549-LDH Assay activity) was 1000 to 6000 nM and the EC50 [2] was 100 to 1000 nM.
`Cc1cc(NS(=O)(=O)c2ccc3[nH]c(=O)c(=O)[nH]c3c2)ccc1Br` [drawing 471 (R^2 = H), reference compound] gave an EC50 ([1]; LDH Assay EC50) of 346 nM and an EC50 [2] of 1690 nM.
Compound `O=c1[nH]c2cc(C(F)F)c(S(=O)(=O)Nc3ccc(OC(F)(F)F)cc3)cc2[nH]c1=O` [Compound 218, 7-(difluoromethyl)-2,3-dioxo-N-(4-(trifluoromethoxy)phenyl)-1,2,3,4-tetrahydroquinoxaline-6-sulfonamide] has an EC50 ([1]; A549-LDH Assay activity) of 100 to 1000 nM and an EC50 [2] of 100 to 1000 nM.
`CCOc1cc2[nH]c(=O)c(=O)[nH]c2cc1S(=O)(=O)Nc1ccc(OC(F)(F)F)cc1` [Compound 278, 7-ethoxy-2,3-dioxo-N-[4-(trifluoromethoxy)phenyl]-1,4-dihydroquinoxaline-6-sulfonamide] gave an EC50 ([1]; A549-LDH Assay activity) of under 30 nM and an EC50 [2] of 100 to 1000 nM.
In the case of `Cc1cc2[nH]c(=O)c(=O)[nH]c2cc1S(=O)(=O)Nc1ccc(-c2ccc(F)c(C(N)=O)c2)c(C(F)(F)F)c1` [Compound 368, 2-fluoro-5-[4-[(7-methyl-2,3-dioxo-1,4-dihydroquinoxalin-6-yl)sulfonylamino]-2-(trifluoromethyl)phenyl]benzamide], the EC50 ([1]; A549-LDH Assay activity) is reported as 100 to 1000 nM and the EC50 [2] is reported as 30 to 100 nM.
`Cc1cc2[nH]c(=O)c(=O)[nH]c2cc1S(=O)(=O)Nc1ccc(-n2ccnn2)c(Cl)c1` [Compound 264, N-[3-chloro-4-(triazol-1-yl)phenyl]-7-methyl-2,3-dioxo-1,4-dihydroquinoxaline-6-sulfonamide] was tested, and the EC50 ([1]; A549-LDH Assay activity) was 100 to 1000 nM and the EC50 [2] was 100 to 1000 nM.
`Cc1cc2[nH]c(=O)c(=O)[nH]c2cc1S(=O)(=O)Nc1ccc(-c2ccc3c(c2)OCO3)c(Cl)c1` [Compound 247, N-[4-(1,3-benzodioxol-5-yl)-3-chloro-phenyl]-7-methyl-2,3-dioxo-1,4-dihydroquinoxaline-6-sulfonamide] gave an EC50 ([1]; A549-LDH Assay activity) of 30 to 100 nM and an EC50 [2] of under 30 nM.
In the case of `Cc1cc2[nH]c(=O)c(=O)[nH]c2cc1S(=O)(=O)Nc1ccc(C(F)(F)F)cc1` [Compound 50, 7-methyl-2,3-dioxo-N-(4-(trifluoromethyl)phenyl)-1,2,3,4-tetrahydroquinoxaline-6-sulfonamide], the EC50 ([1]; A549-LDH Assay activity) is reported as 30 to 100 nM and the IC50 [2] is reported as 30 to 100 nM.
`Cc1cc2[nH]c(=O)c(=O)[nH]c2cc1S(=O)(=O)Nc1ccc2c(c1)CCCC2` [Compound 54, 7-methyl-2,3-dioxo-N-(5,6,7,8-tetrahydronaphthalen-2-yl)-1,2,3,4-tetrahydroquinoxaline-6-sulfonamide] showed an EC50 ([1]; A549-LDH Assay activity) of 100 to 1000 nM and an IC50 [2] of 30 to 100 nM.
Work on `CNc1cc2[nH]c(=O)c(=O)[nH]c2cc1S(=O)(=O)Nc1ccc(OC(F)(F)F)cc1` [Compound 381, 7-(methylamino)-2,3-dioxo-N-[4-(trifluoromethoxy)phenyl]-1,4-dihydroquinoxaline-6-sulfonamide] yielded an EC50 ([1]; A549-LDH Assay activity) of 100 to 1000 nM and an EC50 [2] of 100 to 1000 nM.
Work on `Cc1cc2[nH]c(=O)c(=O)[nH]c2cc1S(=O)(=O)Nc1ccc(-c2ccccc2C(N)=O)cc1` [Compound 126, 4′-((7-methyl-2,3-dioxo-1,2,3,4-tetrahydroquinoxaline)-6-sulfonamido)-[1,1′-biphenyl]-2-carboxamide] yielded an EC50 ([1]; A549-LDH Assay activity) of 100 to 1000 nM and an IC50 [2] of 1000 to 3500 nM.
For `O=c1[nH]c2ccc(S(=O)(=O)Nc3ccc(C4CC4)cc3)cc2[nH]c1=O` [drawing 470 (R^2 = H), reference compound], the EC50 ([1]; LDH Assay EC50) was 80 nM and the EC50 [2] was 423 nM.
`CC(C)c1cc2[nH]c(=O)c(=O)[nH]c2cc1S(=O)(=O)Nc1ccc(-c2cccc(N(C)C)c2)c(Cl)c1` [Compound 109, N-(2-chloro-3′-(dimethylamino)-[1,1′-biphenyl]-4-yl)-7-isopropyl-2,3-dioxo-1,2,3,4-tetrahydroquinoxaline-6-sulfonamide] was tested, and the EC50 ([1]; A549-LDH Assay activity) was 100 to 1000 nM and the IC50 [2] was 100 to 1000 nM.
